# Data taken from patent publication US20250163038A1, “CBL-B MODULATORS AND USES THEREOF” (Nimbus Clio, Inc., priority 2021, published 2025).
# Tests used:
# [1] = molecular target: T1, Recombinant human c-Cbl (aa 47-435) (Homo sapiens, UniProt P22681); assay: c-Cbl Biochemical Assay (TR-FRET); settings: hc-Cbl Biochemical Assay (TR-FRET); read-out: TR-FRET hcCbl IC50
# T1 sequence (P22681 47-435): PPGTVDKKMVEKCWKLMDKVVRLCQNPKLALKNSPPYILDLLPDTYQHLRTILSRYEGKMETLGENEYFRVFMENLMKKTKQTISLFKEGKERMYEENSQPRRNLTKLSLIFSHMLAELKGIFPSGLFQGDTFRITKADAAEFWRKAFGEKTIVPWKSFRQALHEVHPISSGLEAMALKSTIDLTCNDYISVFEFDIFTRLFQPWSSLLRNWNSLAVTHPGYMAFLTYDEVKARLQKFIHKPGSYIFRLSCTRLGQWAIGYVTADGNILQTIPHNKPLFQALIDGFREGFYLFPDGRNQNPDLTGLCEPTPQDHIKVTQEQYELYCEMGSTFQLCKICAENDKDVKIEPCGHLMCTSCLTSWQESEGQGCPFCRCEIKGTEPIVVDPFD
# [2] = molecular target: Recombinant human Cbl-b (aa 36-427) (Homo sapiens, UniProt Q13191); assay: Cbl-b Biochemical Assay (TR-FRET); settings: read-out: TR-FRET hCbl-b IC50
# Sequence of Recombinant human Cbl-b (aa 36-427) (Q13191 36-427): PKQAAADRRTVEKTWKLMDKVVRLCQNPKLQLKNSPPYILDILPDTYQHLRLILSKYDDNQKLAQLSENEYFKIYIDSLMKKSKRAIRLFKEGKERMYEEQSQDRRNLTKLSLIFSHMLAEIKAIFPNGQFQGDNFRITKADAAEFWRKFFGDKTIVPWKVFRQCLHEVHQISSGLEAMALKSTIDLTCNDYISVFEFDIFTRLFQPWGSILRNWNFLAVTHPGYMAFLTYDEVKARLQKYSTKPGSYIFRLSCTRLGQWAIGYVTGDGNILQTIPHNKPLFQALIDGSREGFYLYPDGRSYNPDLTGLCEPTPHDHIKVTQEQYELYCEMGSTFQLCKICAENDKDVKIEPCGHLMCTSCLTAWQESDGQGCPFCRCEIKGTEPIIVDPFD
SMILES,IC50 [1] [µM],IC50 [2] [µM]
"C=Cc1cc(C(F)(F)F)c2oc(-c3cccc(-c4ccc(F)cc4-c4nncn4C)c3)nc2c1 (racemic) [DL-1, 2-(4′-Fluoro-2′-(4-methyl-4H-1,2,4-triazol-3-yl)-[1,1′-biphenyl]-3-yl)-7-(trifluoromethyl)-5-vinylbenzo[d]oxazole]",1 to 10,0.2 to 1
"CCNc1cc(-c2c(-c3nncn3C)cnn2C)cc(-c2nc3cc(CN4CCC5(CC5)C4)cc(C(F)(F)F)c3o2)n1 [AAC-5, 6-(5-{5-Azaspiro[2.4]heptan-5-ylmethyl}-7-(trifluoromethyl)-1,3-benzoxazol-2-yl)-N-ethyl-4-[2-methyl-4-(4-methyl-1,2,4-triazol-3-yl)pyrazol-3-yl]pyridin-2-amine]",10 to 50,1 to 10
"C[C@@H]1CCCN(Cc2cc(C(F)(F)F)c3[nH]c(-c4cccc(-c5ccccc5-c5nncn5C)c4)nc3c2)C1 [AAJ-1, 2-[2′-(4-Methyl-1,2,4-triazol-3-yl)-[1,1′-biphenyl]-3-yl]-6-{[(3R)-3-methylpiperidin-1-yl]methyl}-4-(trifluoromethyl)-3H-1,3-benzodiazole]",10 to 50,1 to 10
"CCNc1cc(-c2c(-c3nncn3C)cnn2C)cc(-c2nc3cc(CN4CCC5(CC5)C4)cc(C(F)(F)F)c3[nH]2)n1 [AAM-2, 6-(6-{5-Azaspiro[2.4]heptan-5-ylmethyl}-4-(trifluoromethyl)-3H-1,3-benzodiazol-2-yl)-N-ethyl-4-[2-methyl-4-(4-methyl-1,2,4-triazol-3-yl)pyrazol-3-yl]pyridin-2-amine]",10 to 50,1 to 10
"CCNc1cc(-c2ccccc2-c2nncn2C)cc(-c2nc3cc(CO)cc(C(F)(F)F)c3[nH]2)n1 [AAN-3, {2-[6-(Ethylamino)-4-[2-(4-methyl-1,2,4-triazol-3-yl)phenyl]pyridin-2-yl]-7-(trifluoromethyl)-1H-1,3-benzodiazol-5-yl}methanol]",10 to 50,10 to 50
"CCNc1cc(-c2ccccc2-c2nncn2C)cc(-n2nc3c(C(F)(F)F)cccn3c2=O)n1 [AAO-4, 2-(6-(Ethylamino)-4-(2-(4-methyl-4H-1,2,4-triazol-3-yl)phenyl)pyridin-2-yl)-8-(trifluoromethyl)-[1,2,4]triazolo[4,3-a]pyridin-3(2H)-one]",10 to 50,10 to 50
"Cn1cnnc1-c1cnn(C)c1-c1cccc(-c2nc3cc(CN[C@H]4CCC[C@@H]4O)cc(C(F)(F)F)c3o2)c1 [AAU-6, (1S,2S)-2-(((2-(3-(1-Methyl-4-(4-methyl-4H-1,2,4-triazol-3-yl)-1H-pyrazol-5-yl)phenyl)-7-(trifluoromethyl)benzo[d]oxazol-5-yl)methyl)amino)cyclopentan-1-ol]",10 to 50,0.2 to 1
"Cn1cnnc1-c1cnn(C)c1-c1cccc(-c2nc3cc(CN[C@@H]4CCC[C@H]4O)cc(C(F)(F)F)c3o2)c1 [AAV-2, (1R,2R)-2-(((2-(3-(1-Methyl-4-(4-methyl-4H-1,2,4-triazol-3-yl)-1H-pyrazol-5-yl)phenyl)-7-(trifluoromethyl)benzo[d]oxazol-5-yl)methyl)amino)cyclopentan-1-ol]",10 to 50,1 to 10
"Cn1cnnc1-c1ccccc1-c1cccc(-c2nc3cccc(C(F)(F)F)n3n2)c1 [ABU-2, 2-(2′-(4-Methyl-4H-1,2,4-triazol-3-yl)-[1,1′-biphenyl]-3-yl)-5-(trifluoromethyl)-[1,2,4]triazolo[1,5-a]pyridine]",10 to 50,10 to 50
"Cn1cnnc1-c1ccccc1-c1cccc(-c2cc(C(F)(F)F)c[nH]c2=O)c1 [ABV-1, 3-(2′-(4-Methyl-4H-1,2,4-triazol-3-yl)-[1,1′-biphenyl]-3-yl)-5-(trifluoromethyl)pyridin-2(1H)-one]",10 to 50,10 to 50
"C[C@H](Cc1nncn1C)c1cccc(-c2nc3cccc(C(F)(F)F)n3n2)c1 [ACA-2, (R)-2-(3-(1-(4-methyl-4H-1,2,4-triazol-3-yl)propan-2-yl)phenyl)-5-(trifluoromethyl)-[1,2,4]triazolo[1,5-a]pyridine]",10 to 50,10 to 50
N#CC1(CN)CCCC1 [AHN-1],< 0.2,–

# More lines, now with the values ahead:
IC50 [1] [µM],IC50 [2] [µM],SMILES
10 to 50,10 to 50,"CC(Cc1nncn1C)c1cccc(-c2nc3ccc(C(=O)N4CCN(C)CC4)c(C(F)(F)F)c3[nH]2)c1 (racemic) [AY-5, (2-(3-(1-(4-Methyl-4H-1,2,4-triazol-3-yl)propan-2-yl)phenyl)-7-(trifluoromethyl)-1H-benzo[d]imidazol-6-yl)(4-methylpiperazin-1-yl)methanone]"
10 to 50,0.2 to 1,"Cn1cnnc1CC1(c2cccc(-c3nc4cc(Br)cc(C(F)(F)F)c4o3)c2)COC1 [AAK-1, 5-Bromo-2-(3-(3-((4-methyl-4H-1,2,4-triazol-3-yl)methyl)oxetan-3-yl)phenyl)-7-(trifluoromethyl)benzo[d]oxazole]"
10 to 50,1 to 10,"Cn1cnnc1C[C@]1(c2cccc(-c3nc4cccc(C(F)(F)F)c4o3)c2)C[C@H](C#N)C1 [AAT-14, (1r,3r)-3-((4-Methyl-4H-1,2,4-triazol-3-yl)methyl)-3-(3-(7-(trifluoromethyl)benzo[d]oxazol-2-yl)phenyl)cyclobutane-1-carbonitrile]"
10 to 50,10 to 50,"Cn1cnnc1CC1(c2cccc(-c3nc4cccc(C(F)(F)F)c4[nH]3)c2)COC1 [ABB-2, 2-(3-(3-((4-Methyl-4H-1,2,4-triazol-3-yl)methyl)oxetan-3-yl)phenyl)-7-(trifluoromethyl)-1H-benzo[d]imidazole]"
10 to 50,10 to 50,"Cn1cnnc1CC1(c2cccc(-c3nc4cccc(C(F)(F)F)n4n3)c2)COC1 [ABC-4, 2-(3-(3-((4-Methyl-4H-1,2,4-triazol-3-yl)methyl)oxetan-3-yl)phenyl)-5-(trifluoromethyl)-[1,2,4]triazolo[1,5-a]pyridine]"
10 to 50,10 to 50,"C[C@H](Cc1nncn1C)c1cccc(-c2nc3cccc(C(F)(F)F)c3[nH]2)c1 [ABD-9, 2-{3-[(2R)-1-(4-Methyl-1,2,4-triazol-3-yl)propan-2-yl]phenyl}-4-(trifluoromethyl)-3H-1,3-benzodiazole]"
10 to 50,10 to 50,"Cn1cnnc1CC1(c2cccc(-c3nc4cc(C(=O)N5CCCC5)cc(C(F)(F)F)c4[nH]3)c2)COC1 [ABH-4, (2-(3-(3-((4-Methyl-4H-1,2,4-triazol-3-yl)methyl)oxetan-3-yl)phenyl)-7-(trifluoromethyl)-1H-benzo[d]imidazol-5-yl)(pyrrolidin-1-yl)methanone]"
10 to 50,10 to 50,"Cn1cnnc1CC1(c2cccc(-c3nc4cc(C(=O)N5CCC6(CC6)C5)cc(C(F)(F)F)c4[nH]3)c2)COC1 [ABJ-2, (2-(3-(3-((4-Methyl-4H-1,2,4-triazol-3-yl)methyl)oxetan-3-yl)phenyl)-7-(trifluoromethyl)-1H-benzo[d]imidazol-5-yl)(5-azaspiro[2.4]heptan-5-yl)methanone]"
10 to 50,0.2 to 1,"Cn1cnnc1CC1(c2cccc(-c3nc4cc(CN5CCCC5)cc(C(F)(F)F)c4[nH]3)c2)COC1 [ABL-1, 2-(3-(3-((4-Methyl-4H-1,2,4-triazol-3-yl)methyl)oxetan-3-yl)phenyl)-5-(pyrrolidin-1-ylmethyl)-7-(trifluoromethyl)-1H-benzo[d]imidazole]"
10 to 50,0.2 to 1,"Cn1cnnc1CC1(c2cccc(-c3cc(C(F)(F)F)c[nH]c3=O)c2)COC1 [ABO-1, 3-(3-(3-((4-Methyl-4H-1,2,4-triazol-3-yl)methyl)oxetan-3-yl)phenyl)-5-(trifluoromethyl)pyridin-2(1H)-one]"
1 to 10,< 0.2,"Cn1cnnc1CC1(c2cccc(-c3nc4cc(C(=O)N5CC[C@H](O)C5)cc(C(F)(F)F)c4[nH]3)c2)COC1 [ABR-2, (S)-(3-Hydroxypyrrolidin-1-yl)(2-(3-(3-((4-methyl-4H-1,2,4-triazol-3-yl)methyl)oxetan-3-yl)phenyl)-7-(trifluoromethyl)-1H-benzo[d]imidazol-5-yl)methanone]"
10 to 50,10 to 50,"Cn1cnnc1CC1(c2cccc(-c3nc4cc(C(=O)N5CC[C@@H](O)C5)cc(C(F)(F)F)c4[nH]3)c2)COC1 [ABS-2, (R)-(3-Hydroxypyrrolidin-1-yl)(2-(3-(3-((4-methyl-4H-1,2,4-triazol-3-yl)methyl)oxetan-3-yl)phenyl)-7-(trifluoromethyl)-1H-benzo[d]imidazol-5-yl)methanone]"
10 to 50,1 to 10,"Cn1cnnc1CC1(c2cccc(-c3nc4cccc(C(F)(F)F)c4s3)c2)COC1 [ABT-2, 2-(3-(3-((4-Methyl-4H-1,2,4-triazol-3-yl)methyl)oxetan-3-yl)phenyl)-7-(trifluoromethyl)benzo[d]thiazole]"
10 to 50,10 to 50,"Cn1cnnc1CC1(c2cccc(-c3cc(C4CC4)c[nH]c3=O)c2)COC1 [ABX-3, 5-Cyclopropyl-3-(3-(3-((4-methyl-4H-1,2,4-triazol-3-yl)methyl)oxetan-3-yl)phenyl)pyridin-2(1H)-one]"
10 to 50,0.2 to 1,"Cn1cnnc1CC1(c2cccc(-c3nc4cc(CN5CC[C@@H](O)C5)cc(C(F)(F)F)c4[nH]3)c2)COC1 [ACB-1, (R)-1-((2-(3-(3-((4-Methyl-4H-1,2,4-triazol-3-yl)methyl)oxetan-3-yl)phenyl)-7-(trifluoromethyl)-1H-benzo[d]imidazol-5-yl)methyl)pyrrolidin-3-ol]"
